Assay results from US6403561B1, “Tripeptidylpeptidase inhibitors” (Institut National de la Sante et de la Recherche Medicale …, priority 1998, dated 2002).
Structures can show the parent of a compound that is named as a salt. Where a SMILES comes first, the peptide text is derived from it. [ ]: non-standard residue; d: D form. The star is where a group is joined. ξ: configuration not given here. Pro(cis-4-F) = O=C(O)[C@@H]1C[C@H](F)CN1; Tic = O=C(O)[C@@H]1Cc2ccccc2CN1; Abu = CC[C@H](N)C(=O)O; ξAbu = CCC(N)C(=O)O; NHBu = CCCCN*; NHPr = CCCN*

test system: not given; test: not given; settings: not given

melting point | Molecule
90 to 92 °C | CCCCNC(=O)C1c2ccccc2CN1C(=O)[C@@H](N)CC (mixture of isomers) (as salt: oxalate) [Example 23, 2-(2(S)-aminobutyryl)-1-(R/S)-isoindolinecarboxylic Acid N-butylamide]
165 to 167 °C | CCCCNC(=O)[C@@H]1CCCN1C(=O)[C@@H](N)CC (as salt: oxalate) [Example 4, 1-(2(S)-amino-butyryl)-L-proline n-butylamide] (H-[Abu]-Pro-NHBu)
140 to 141 °C | CCCCCNC(=O)[C@@H]1CCCN1C(=O)[C@@H](N)CC (as salt: oxalate) [Example 3, 1-(2(S)-aminobutyryl)-L-proline n-pentylamide]
115 to 120 °C | CCNC(=O)[C@@H]1Cc2ccccc2N1C(=O)[C@@H](N)CC [Example 17, 1-(2(S)-aminobutyryl)-2(s)-indolinecarboxylic Acid ethylamide]
112 to 118 °C | CCCCNC(=O)C1Cc2cc(OC)ccc2N1C(=O)[C@H](C)N.O=C(O)C(=O)O (mixture of isomers) [Example 25, 1-(L-alanyl)-5-methoxyindoline-2(R/S)-carboxylic Acid Butylamide Oxalate]
127 to 133 °C | CCCCNC(=O)C1N(C(=O)[C@@H](N)CC)c2ccccc2C1(C)C.O=C(O)C(=O)O (mixture of isomers) [Example 28, 1-(2(S)-aminobutyryl)-3,3-dimethylindoline-2(R/S)-carboxylic Acid Butylamide Oxalate]
146 to 147 °C | CCCCCCNC(=O)[C@@H]1CCCN1C(=O)[C@@H](N)C(C)C (as salt: oxalate) [Example 1, L-valyl-L-proline n-hexylamide]
95 to 105 °C | CCCCNC(=O)C1Cc2cc(OC)ccc2N1C(=O)[C@@H](N)CC (mixture of isomers) (as salt: oxalate) [Example 18, 1-(2(S)-amino-butyryl)-2(R/S)-(5-methoxy)indolinecarboxylic Acid n-butylamide]
129 to 130 °C | CCCCNC(=O)C1Cc2cc(O)ccc2N1C(=O)[C@@H](N)CC.O=C(O)C(=O)O (mixture of isomers) [Example 34, 1-2(S)-aminobutyryl-5-hydroxyindoline-2(R/S)-carboxylic Acid Butylamide Oxalate]
83 to 84 °C | CCCCNC(=O)[C@@H]1Cc2cc(Cl)ccc2N1C(=O)[C@@H](N)CC.O=C(O)C(F)(F)F [Example 36, 1-(2(S)-aminobutyryl)-5-chloroindoline-2(S)-carboxylic Acid Butylamide Trifluoroacetate]
105 to 110 °C | CCCCNC(=O)C1Cc2cc(F)ccc2N1C(=O)[C@@H](N)CC (mixture of isomers) (as salt: oxalate) [Example 20, 1-(2(S)-aminobutyryl)-2(R/S)-(5-fluoro)indolinecarboxylic Acid N-butylamide]
110 to 112 °C | CCCCNC(=O)C1Cc2cc(C)ccc2N1C(=O)[C@@H](N)CC.O=C(O)C(=O)O (mixture of isomers) [Example 35, 1-2(S)-aminobutyryl-5-methylindoline-2(R/S)-carboxylic Acid Butylamide Oxalate]
46 to 51 °C | CCCNC(=O)[C@@H]1CCCN1C(=O)[C@@H](N)CC (as salt: trifluoroacetate) [Example 6, 1-(2(S)-amino-butyryl)-L-proline n-propylamide] (H-[Abu]-Pro-NHPr)
120 to 121 °C | CC[C@H](N)C(=O)N1CCC[C@H]1C(=O)NCCCSC (as salt: oxalate) [Example 2, 1-(2(S)-amino-butyryl)-L-proline 3-(methylthio)propylamide]
130 to 131 °C | CCCNC(=O)[C@@H]1Cc2ccccc2N1C(=O)[C@@H](N)CC (as salt: oxalate) (hydrate or solvate)

target: membrane-bound tripeptidylpeptidase II (Rattus norvegicus, UniProt Q64560); test: Measurement of the activity of membrane-bound tripeptidylpeptidase (release of Amc from A-AP-Amc, fluorimetry); settings: Ki, apparent dissociation constant calculated from the 50% inhibitory concentration and the KM of the substrate (23 μM); rat brain membranes, 50 μM A-AP-Amc
Sequence (Q64560 whole entry): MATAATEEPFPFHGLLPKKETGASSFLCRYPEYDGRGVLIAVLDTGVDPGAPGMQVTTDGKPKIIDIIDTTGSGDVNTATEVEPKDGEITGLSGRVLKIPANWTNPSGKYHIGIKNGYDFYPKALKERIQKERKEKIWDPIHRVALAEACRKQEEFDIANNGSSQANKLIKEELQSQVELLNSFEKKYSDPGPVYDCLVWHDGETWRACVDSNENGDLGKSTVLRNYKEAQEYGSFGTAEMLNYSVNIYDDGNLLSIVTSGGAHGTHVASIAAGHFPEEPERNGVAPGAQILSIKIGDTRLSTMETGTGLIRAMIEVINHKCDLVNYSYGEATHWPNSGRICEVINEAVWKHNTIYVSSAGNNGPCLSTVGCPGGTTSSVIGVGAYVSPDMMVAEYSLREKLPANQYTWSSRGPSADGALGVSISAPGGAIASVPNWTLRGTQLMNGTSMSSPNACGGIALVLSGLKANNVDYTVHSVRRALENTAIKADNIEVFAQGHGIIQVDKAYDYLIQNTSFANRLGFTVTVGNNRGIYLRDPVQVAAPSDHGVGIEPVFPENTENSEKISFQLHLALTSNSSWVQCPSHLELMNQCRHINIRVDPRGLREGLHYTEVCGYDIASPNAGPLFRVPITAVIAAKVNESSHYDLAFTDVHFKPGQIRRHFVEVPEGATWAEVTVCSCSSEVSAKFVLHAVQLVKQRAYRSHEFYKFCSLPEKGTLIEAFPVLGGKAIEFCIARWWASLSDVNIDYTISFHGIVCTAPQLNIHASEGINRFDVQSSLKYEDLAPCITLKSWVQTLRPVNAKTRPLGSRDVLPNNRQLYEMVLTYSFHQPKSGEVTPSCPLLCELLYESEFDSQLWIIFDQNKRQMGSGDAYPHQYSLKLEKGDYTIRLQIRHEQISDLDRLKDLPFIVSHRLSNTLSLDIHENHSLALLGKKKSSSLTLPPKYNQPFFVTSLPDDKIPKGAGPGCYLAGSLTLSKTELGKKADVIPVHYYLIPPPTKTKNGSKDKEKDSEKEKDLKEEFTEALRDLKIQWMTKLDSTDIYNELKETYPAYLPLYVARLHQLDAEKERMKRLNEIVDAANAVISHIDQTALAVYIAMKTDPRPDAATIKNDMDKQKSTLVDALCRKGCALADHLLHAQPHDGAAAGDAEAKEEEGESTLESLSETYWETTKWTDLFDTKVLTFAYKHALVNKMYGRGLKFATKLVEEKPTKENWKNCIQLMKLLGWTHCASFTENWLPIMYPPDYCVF
Description: Membranes from rat brain were obtained by centrifugation (200,000×g min) of a homogenate prepared in 10 volumes of 50 mM potassium phosphate buffer, pH 7.4.
After washing thoroughly, the centrifugation pellet is taken up in the buffer containing 10% glycerol and 0.1% Brij 35 in order to obtain a concentration of 25 mg of proteins/ml.
The release of Amc is evaluated by fluorimetry.

Ki | Molecule
77 nM | CCCCNC(=O)C1Cc2ccc(OC)cc2N1C(=O)[C@@H](N)CC (mixture of isomers) [Example 19, 1-(2(S)-aminobutyryl)-2(R/S)-(6-methoxy)indolinecarboxylic acid n-butylamide]
8 nM | CCCCNC(=O)C1Cc2cc(OC)ccc2N1C(=O)[C@@H](N)CC (mixture of isomers) [Example 18, 1-(2(S)-amino-butyryl)-2(R/S)-(5-methoxy)indolinecarboxylic Acid n-butylamide]
270 nM | CCCCCNC(=O)[C@@H]1CCCN1C(=O)[C@@H](N)CC [Example 3, 1-(2(S)-aminobutyryl)-L-proline n-pentylamide]
146 nM | CCCCNC(=O)C1Cc2cc(OC)ccc2N1C(=O)[C@@H](N)C(C)C (mixture of isomers) [Example 24, 1-(L-valyl)-5-methoxyindoline-2(R/S)-carboxylic Acid Butylamide Oxalate]
320 nM | CC[C@H](N)C(=O)N1CCC[C@H]1C(=O)NCC(C)C [Example 7, 1-(2(S)-amino-butyryl)-L-proline isobutylamide]
100 nM | CCCCNC(=O)[C@@H]1CCCN1C(=O)[C@@H](N)CC [Example 4, 1-(2(S)-amino-butyryl)-L-proline n-butylamide] (H-[Abu]-Pro-NHBu)
80 nM | CCCNC(=O)[C@@H]1CCCN1C(=O)[C@@H](N)CC [Example 6, 1-(2(S)-amino-butyryl)-L-proline n-propylamide] (H-[Abu]-Pro-NHPr)
900 nM | CCCCCCNC(=O)[C@@H]1CCCN1C(=O)[C@@H](N)C(C)C [Example 1, L-valyl-L-proline n-hexylamide]
22.6 nM | CCCCNC(=O)C1Cc2cc(C)ccc2N1C(=O)[C@@H](N)CC (mixture of isomers) [Example 35, 1-2(S)-aminobutyryl-5-methylindoline-2(R/S)-carboxylic Acid Butylamide Oxalate]
14 nM | CCCCNC(=O)C1Cc2c(OC)cccc2N1C(=O)[C@@H](N)CC (mixture of isomers) [Example 27, 1-(2(S)-aminobutyryl)-4-methoxyindoline-2(R/S)-carboxylic Acid Butylamide Oxalate]
241 nM | CCCCNC(=O)[C@H]1Cc2cc(OC)ccc2N1C(=O)[C@@H](N)CC [18 (S,R) isomer]
570 nM | CCCCNC(=O)[C@@H]1CCCN1C(=O)[C@@H](N)C(C)C [Example 8, L-valyl-L-proline n-butylamide] (H-Val-Pro-NHBu)
1000 nM | CCCCNC(=O)C1Cc2cc(OCc3ccccc3)ccc2N1C(=O)[C@@H](N)CC (mixture of isomers) [Example 21]
26 nM | CCCCNC(=O)C1Cc2cc(OC)ccc2N1C(=O)[C@H](C)N (mixture of isomers) [Example 25, 1-(L-alanyl)-5-methoxyindoline-2(R/S)-carboxylic Acid Butylamide Oxalate]
32 nM | CCCCNC(=O)C1C(C)c2ccccc2N1C(=O)C(N)CC (single isomer, unassigned) [Example 30]
300 nM | CC[C@H](N)C(=O)N1CCC[C@H]1C(=O)NCCCSC [Example 2, 1-(2(S)-amino-butyryl)-L-proline 3-(methylthio)propylamide]
12 nM | CCCCNC(=O)C1Cc2cc(F)ccc2N1C(=O)[C@@H](N)CC (mixture of isomers) [Example 20, 1-(2(S)-aminobutyryl)-2(R/S)-(5-fluoro)indolinecarboxylic Acid N-butylamide]
40 nM | CCCCNC(=O)[C@@H]1Cc2ccccc2CN1C(=O)[C@@H](N)CC [Example 13, 2-(2(S)-amino-butyryl)-1,2,3,4-tetrahydro-3(S)-isoquinolinecarboxylic Acid n-butylamide] (H-[Abu]-[Tic]-NHBu)
320 nM | CCCCNC(=O)[C@@H]1C[C@H](F)CN1C(=O)[C@@H](N)CC [Example 11, 1-(2(S)-amino-butyryl)-(4(S)-fluoro)-L-proline n-butylamide] (H-[Abu]-[Pro(cis-4-F)]-NHBu)
500 nM | CC[C@H](C)CNC(=O)[C@@H]1CCCN1C(=O)[C@@H](N)CC [Example 5, 1-(2(S)-aminobutyryl)-L-proline [2(S)methyl]butylamide]
593 nM | CCCCNC(=O)C1C(C)c2ccccc2N1C(=O)C(N)CC (single isomer, unassigned) [Example 29]
10.4 nM | CCCCNC(=O)C1Cc2cc(O)ccc2N1C(=O)[C@@H](N)CC (mixture of isomers) [Example 34, 1-2(S)-aminobutyryl-5-hydroxyindoline-2(R/S)-carboxylic Acid Butylamide Oxalate]
864 nM | CCCCNC(=O)C1N(C(=O)[C@@H](N)CC)c2ccccc2C1(C)C (mixture of isomers) [Example 28, 1-(2(S)-aminobutyryl)-3,3-dimethylindoline-2(R/S)-carboxylic Acid Butylamide Oxalate]
9.6 nM | CCCCNC(=O)C1Cc2c(ccc(OC)c2OC)N1C(=O)[C@@H](N)CC (mixture of isomers) [Example 32, 1-(2(S)-aminobutyryl)-4,5-dimethoxyindoline-2(R/S)-carboxylic Acid Butylamide Oxalate]
143 nM | CCCCNC(=O)C1c2ccccc2CN1C(=O)[C@@H](N)CC (mixture of isomers) [Example 23, 2-(2(S)-aminobutyryl)-1-(R/S)-isoindolinecarboxylic Acid N-butylamide]
570 nM | CCC(N)C(=O)N1CCC[C@H]1C(N)=O (stereo partly drawn) [2 (S)-aminobutyryl-L-prolineamide, reference compound] (H-[ξAbu]-Pro-NH2)
6 nM | CCCCNC(=O)[C@@H]1Cc2cc(OC)ccc2N1C(=O)[C@@H](N)CC [18 (S,S) isomer]

same assay, conditions: apparent dissociation constant calculated from the 50% inhibitory concentration and the KM of the substrate (23 μM); rat brain membranes, 50 μM A-AP-Amc

Ki | Molecule
140 nM | CCCCNC(=O)[C@@H]1C[C@H](Cc2ccccc2)CN1C(=O)[C@@H](N)CC [Example 12, 1-(2(S)-aminobutyryl)-(4(S)-benzyl)-L-proline n-butylamide]
0.3 nM | L-alanyl-L-prolyldifluoro-L-borovaline borohydride [Example 10]
